Experimental data published in ChEMBL document CHEMBL5725691, “Bromodomain inhibitors” (2018).

target: Bromodomain-containing protein 4 (Homo sapiens, UniProt O60885); experiment: His-tagged BRD4 was cloned, expressed and purified to homogeneity. […] BRD4 binding and inhibition was assessed by monitoring the interaction of biotinylated H4-tetraacetyl peptide (AnaSpec, H4K5/8/12/16(Ac), biotin-labeled) with the target using the AlphaScreen technology (Life Technologies). […] After 20 min incubation at room temp, Alpha streptavidin donor beads and Nickel Chelate acceptor beads were added to a final concentration of 5 μg/mL.

IC50, < 500 nM:
Cn1cc(-c2cc(S(C)(=O)=O)ccc2OCC2CC2)c2cc(C(F)(F)F)ccc2c1=O, CCS(=O)(=O)c1ccc(NCC2CC2)c(-c2cc(Cl)c(=O)n(C)c2)c1, Cc1cc(-c2cn(CS(C)(=O)=O)c(=O)cc2Oc2ccc(F)cc2F)cn(CC2CC2)c1=O, CCS(=O)(=O)c1ccc(OCC2CC2)c(-c2cn(C)c(=O)c3c2OCC(=O)N3)c1, CCCOc1ccc(S(C)(=O)=O)cc1-c1cn(C)c(=O)c2cnc(-c3cnn(C)c3)nc12, Cc1cc(-c2cc(OCc3ccccc3Cl)cc(S(C)(=O)=O)c2)cn(C)c1=O, Cc1c(-c2cc(NS(C)(=O)=O)ccc2Oc2ccc(F)cc2F)cn(C)c(=O)c1C, CCS(=O)(=O)Nc1ncc(Oc2ccc(F)cc2F)c(-c2cc(OC)c(=O)n(C)c2)n1
